Source: patent US20080206287A1, “Use of cyclosporin A to sensitize resistant cancer cells to death receptor ligands” (priority 2006, published 2008)
Entries after “also recorded” stand apart in the source; their conditions may differ.

Columns and labels:
PPC-1 cells = experiment: Apoptosis of PPC-1 cells transfected with CrmA or Bcl-XL; type: cell-based; conditions: for protection by Bcl-XL against apoptosis induced by CH-11 plus compound: PPC-1 cells transfected with Bcl-XL; for protection by CrmA against apoptosis induced by CH-11 plus compound: PPC-1 cells transfected with CrmA
Procedure: Cell transfections. PPC-1 cells (2×10^5) were seeded in 35 mm diameter plates in RPMI with 10% FCS. The next day the cells were co-transfected using Lipofectamine Plus (Invitrogen, Carlsbad, Calif.) with 0.5 μg GFP-encoding plasmid pEGFP (Invitrogen) in combination with […] of plasmids encoding Bcl-XL, the viral caspase-8 inhibitor Crm A, or empty vector. At 2 days post-transfection, cells were incubated with various concentrations of CH-11 antibody and the test compounds for 24 hours, then the percentage apoptosis was scored by UV-microscopic analysis of the GFP-positive cells, counting a minimum of 200 cells. Cells that had rounded up and were floating in the medium were counted as non-viable, while cells that remained adherent to the plate with normal morphological features were counted as viable.
To further address the specificity of the compounds for the extrinsic pathway, the effects of selective apoptosis inhibitory genes were examined. For these experiments, PPC-1 cells were transfected with plasmids encoding CrmA, a viral protein that blocks the extrinsic pathway by inhibiting caspase-8 (Zhou et al., J. Biol. Chem. 272:7797-7800, 1997) or encoding Bcl-xL, a mitochondria-targeting protein that blocks the intrinsic pathway by inhibiting release of cytochrome c (Boise et al., Cell 74:597-608, 1993; Kharbanda et al., Proc. Natl. Acad. Sci. USA 94:6939-6942, 1997). After transfection, cells were treated with CH-11 antibody and compounds 6094911, 5809354, or […] scoring the percentage of apoptotic cells among the successfully transfected cells as determined by co-transfection of a GFP-marker plasmid.

FLIP = FLIP protein immunoblot; type: cell-based, human; conditions: for levels of FLIP protein (long isoform): PPC-1 cells, with or without CH-11, 24 hours, immunoblot
Procedure: Immunoblot analysis. Protein extracts were obtained by washing cells with phosphate-buffered saline (PBS) [pH 7.4] and suspending the cells in lysis buffer [10 mM Tris (pH 7.4), 150 mM NaCl, 0.1% Triton X-100, 0.5% sodium deoxycholate, and 5 mM EDTA] containing protease inhibitors (Complete tablets; Roche, Indianapolis, Ind.). Immunoblot assays were performed as described in Carter et al. (Blood 105:4043-4050, 2005). Briefly, equal amounts of protein as determined by a Bradford assay (Bradford, Anal. Biochem. 72:248-54, 1976) were subjected to SDS-PAGE (4-20% gradient gels from ISC BioExpress, Kaysville, Utah), followed by transfer to nitrocellulose membranes. Membranes were incubated with mouse monoclonal anti-human FLIP (NF6 clone) (1:500 v/v) (Alexis, San Diego, Calif.), 1:1,000 (v/v) anti-aspase-8 clone 5F7 (Upstate) and mouse monoclonal anti-tubulin (1:2000 v/v) (Sigma Inc). Secondary antibodies consisted of horseradish peroxidase-conjugated goat anti-rabbit IgG or goat anti-mouse IgG (Bio-Rad, Hercules, Calif.). Detection was performed by the enhanced chemiluminescence method (Pierce, Rockford, Ill.).
Effects of sensitizing compounds on FLIP protein. Since FAS-sensitizing compounds 6094911 and 5809354 modulate the extrinsic pathway downstream of TNF-family death receptors but upstream of effector caspases, the effects of those compounds on expression of FLIP, an intracellular antiapoptotic protein that binds caspases-8 and -10 and is capable of suppressing death receptor signaling at a proximal point within the extrinsic pathway, was examined. For these experiments, PPC-1 cells were treated with sensitizing compounds in the presence or absence of CH-11 antibody, then cell lysates were prepared 24 hours later, and analyzed by immunoblotting for FLIP.
The levels of the short isoform of FLIP were less than 5% of total FLIP protein as measured by immunoblotting and quantitative densitometry. Therefore, given the very low levels of the short isoform, the analysis was limited to the effects of the compounds on the long isoform of FLIP.

ten tumor cell lines = experiment: CH-11 killing of a spectrum of malignant cell lines; type: cell-based; conditions: increasing concentrations with or without CH-11
Procedure: Effects of small molecule sensitizers on CH-11 killing of a spectrum of malignant cell lines. To assess the spectrum of activity of the small molecule FAS sensitizers, an additional nine malignant cell lines derived from breast, ovarian, and prostate carcinomas were treated with increasing concentrations of the sensitizers in the presence or absence of CH-11. […] None of the other compounds sensitized more than four of ten tumor lines to CH-11. […] Also, all of the non-responding cell lines, except Colo 205, had detectable levels of FLIP by immunoblotting. Thus, the failure of 609411 and 5809354 to sensitize these tumor lines to anti-FAS antibody was not due to either lack of FAS expression or absence of FLIP, with rare exception.

[1] = test system: PPC-1, OVCAR-3, T47D, MDA-MB-468 and DU 145 cells; experiment: FLIP siRNA knock-down and CH-11 killing; type: cell-based; conditions: PPC-1 cells transfected with FLIP siRNA
Procedure: Transfection of siRNA oligonucleotides. Double-stranded SMARTPOOL siRNA oligonucleotides targeting c-FLIP mRNA and double-stranded firefly luciferase control siRNA (Dharmacon Research, Lafayette, Colo.) (10 nM) were transfected into cells with Lipofectamine according to the manufacturer's instructions.
To test the functional importance of decreases in FLIP by 5809354, it was determined whether knocking down FLIP could recapitulate the activity of the molecule and abrogate 5809354's ability to sensitize cells to CH-11. PPC-1 cells were transfected with double stranded siRNA that targeted FLIP or luciferase as a control. At 24 hours after transfection, cells were treated with increasing concentrations of 5809354 with or without CH-11.

SMILES | protection by Bcl-XL against apoptosis induced by CH-11 plus compound (PPC-1 cells) | protection by CrmA against apoptosis induced by CH-11 plus compound (PPC-1 cells) | levels of FLIP protein (long isoform) (FLIP) | tumor cell lines sensitized to CH-11 (ten tumor cell lines) | levels of FLIP (FLIP; non-responding cell lines DU145 and MDA-MB-468) | enhancement of CH-11-mediated killing in the presence of FLIP siRNA [1]
CCn1c(=N)n(CC(=O)c2cc(C(C)(C)C)c(O)c(C(C)(C)C)c2)c2ccccc21 [compound 5569100, 1-(3,5-Di-tert-butyl-4-hydroxy-phenyl)-2-(3-ethyl-2-imino-2,3-dihydro-benzoimidazol-1-yl)-ethanone] | no protective effect | almost completely protected | decreased levels of FLIP protein; also recorded: reduced FLIP expression |  |  | 
O=C(CCCOc1ccc(Cl)cc1Cl)NO [compound 5809354, 4-(2,4-dichlorophenoxy)-N-hydroxybutanamide] | no protective effect | almost completely protected | decreased levels of FLIP protein | sensitized the same tumor lines with the exception of HT29 | decreased | the longer enhanced CH-11-mediated killing
CC(=O)CC(=O)Nc1ccc(Cl)c(C(F)(F)F)c1 [compound 6094911, N-[4-chloro-3-(trifluoromethyl)phenyl]-3-oxobutanamide] | no protective effect | almost completely protected | did not alter levels of FLIP protein | sensitized four of ten tumor cell lines to CH-11; also recorded: sensitizing 4 of 10 tumor lines; also recorded: enhanced FAS-induced killing of several tumor cell lines |  | 
